Assay [1] addresses Female germline-specific tumor suppressor gld-1 (Caenorhabditis elegans, UniProt Q17339). Nature of the assay: inhibitors of GLD-1 binding to TGE RNA, dose response, biochemical, fluorescence polarization, C. elegans (AID 2802).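 Note: fluorescence polarization of labeled TGE RNA bound by purified gld-1 protein.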 Background: Polarisation of emitted light reports the rotation of a fluorescent probe.
In assay [2] the target is T1, Long-chain-fatty-acid--AMP ligase FadD28 (Mycobacterium tuberculosis, UniProt P9WQ59).
T1 sequence (P9WQ59 whole entry): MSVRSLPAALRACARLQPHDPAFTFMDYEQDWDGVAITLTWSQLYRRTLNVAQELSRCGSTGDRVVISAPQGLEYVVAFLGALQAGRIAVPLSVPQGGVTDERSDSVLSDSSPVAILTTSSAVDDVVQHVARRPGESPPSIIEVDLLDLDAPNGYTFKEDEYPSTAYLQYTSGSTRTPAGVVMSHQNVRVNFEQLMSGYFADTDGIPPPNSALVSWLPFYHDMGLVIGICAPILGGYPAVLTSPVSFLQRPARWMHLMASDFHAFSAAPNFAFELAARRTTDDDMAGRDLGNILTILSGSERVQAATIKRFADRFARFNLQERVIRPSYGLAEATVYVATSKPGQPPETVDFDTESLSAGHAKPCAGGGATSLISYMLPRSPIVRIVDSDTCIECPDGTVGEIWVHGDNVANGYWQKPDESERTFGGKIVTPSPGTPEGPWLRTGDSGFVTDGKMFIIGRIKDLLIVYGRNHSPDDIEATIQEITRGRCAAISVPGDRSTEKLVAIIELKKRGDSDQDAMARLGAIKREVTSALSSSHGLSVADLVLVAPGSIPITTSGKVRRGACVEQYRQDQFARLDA
The experiment in a line: Fluorescence polarization aasay to screen for inhibitors that compete for the binding of FadD28 to a bisubstrate Measured in Biochemical System Using Plate Reader - 2147-01_Inhibitor_Dose_CherryPick_Activity. It counts as functional, Mycobacterium tuberculosis H37Rv.

For another assay, the target named is 14-3-3 protein gamma (Homo sapiens, UniProt P61981). The experiment in a line: modulators of 14-3-3 gamma client binding – dose response (AID 711). It counts as functional.
The target in another assay is Genome polyprotein (dengue virus type 2, UniProt P29990). Nature of the assay: Dengue-2 NS5 methyltransferase inhibitors, primary screen, biochemical, confirmation dose response (AID 588689). It is filed as functional.
The target in the next assay is Protein Rev (Human immunodeficiency virus type 1 group M subtype B (isolate HXB2)(HIV-1), UniProt P04618). The experiment in a line: inhibitors of Rev binding to RRE RNA, dose response, biochemical, fluorescence polarization, HIV-1 (AID 434976). Further details: species or system Human immunodeficiency virus 1.
Assay [3] deals with T2, Caspase-3 (Homo sapiens, UniProt P42574).
T2 sequence (P42574 whole entry): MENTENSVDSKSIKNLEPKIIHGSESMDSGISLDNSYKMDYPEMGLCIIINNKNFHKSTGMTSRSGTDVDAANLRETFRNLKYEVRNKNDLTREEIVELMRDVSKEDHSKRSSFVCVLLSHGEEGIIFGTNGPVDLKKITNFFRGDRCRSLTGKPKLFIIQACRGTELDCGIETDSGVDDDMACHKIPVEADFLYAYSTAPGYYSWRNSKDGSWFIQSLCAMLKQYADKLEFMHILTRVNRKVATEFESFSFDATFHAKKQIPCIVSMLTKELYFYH
Nature of the assay: procaspase-3 activation potency of dual hits, dose response, counter-screen for dual procaspase-3/7 activator project, biochemical, absorbance, PC-3 D3A mutant (AID 504328).

Assay [4] has as its target T3, Caspase-7 (Homo sapiens, UniProt P55210).
T3 sequence (P55210 whole entry): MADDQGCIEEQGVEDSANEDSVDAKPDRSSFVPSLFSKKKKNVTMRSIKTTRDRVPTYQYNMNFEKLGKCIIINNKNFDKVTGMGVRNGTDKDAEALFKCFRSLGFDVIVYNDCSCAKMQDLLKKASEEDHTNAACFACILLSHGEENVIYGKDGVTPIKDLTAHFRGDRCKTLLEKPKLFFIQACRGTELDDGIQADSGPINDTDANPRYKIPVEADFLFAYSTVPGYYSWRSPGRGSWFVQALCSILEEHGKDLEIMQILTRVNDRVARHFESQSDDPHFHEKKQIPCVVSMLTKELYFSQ
Nature of the assay: procaspase-7 activators, dose response, dual procaspase-3/-7 activator project, biochemical, absorbance, human (AID 504330).

Another assay addresses Cytochrome P450 2D6 (Homo sapiens, UniProt P10635).
Assay [5] is described as follows: inhibitors of HIV Env-driven cell fusion, dose response, cherry-pick (AID 652057). It is filed as functional, cell-based.
Assay [6] concerns the target G-protein coupled receptor 35 (Homo sapiens, UniProt Q9HC97). Nature of the assay: GPR35 antagonists blocking zaprinast-driven arrestin recruitment, primary screen, imaging, U2OS, beta-arrestin-GFP, zaprinast agonist (AID 2058).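 Note: antagonist potency meaning inhibition of agonist-induced arrestin redistribution.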 It counts as functional. Background: Activated receptors often draw arrestin, which recruitment assays turn into a signal.
Assay [7] deals with T3, Caspase-7. Nature of the assay: human caspase-7 inhibitors, dose response, selectivity assay for caspase-6 inhibitor project, biochemical, DEVD-R110 fluorescence, cherry-pick (AID 743295). It is filed as […].
Assay [8] deals with T2, Caspase-3. Nature of the assay: caspase-3 enzyme inhibitors, selectivity check, dose response, selectivity assay for caspase-6 allosteric inhibitor project, biochemical, fluorescence, cherry-picked samples (AID 743291).
For assay [9], the target named is T4, Apoptotic protease-activating factor 1 (Homo sapiens, UniProt O14727).
T4 sequence (O14727 whole entry): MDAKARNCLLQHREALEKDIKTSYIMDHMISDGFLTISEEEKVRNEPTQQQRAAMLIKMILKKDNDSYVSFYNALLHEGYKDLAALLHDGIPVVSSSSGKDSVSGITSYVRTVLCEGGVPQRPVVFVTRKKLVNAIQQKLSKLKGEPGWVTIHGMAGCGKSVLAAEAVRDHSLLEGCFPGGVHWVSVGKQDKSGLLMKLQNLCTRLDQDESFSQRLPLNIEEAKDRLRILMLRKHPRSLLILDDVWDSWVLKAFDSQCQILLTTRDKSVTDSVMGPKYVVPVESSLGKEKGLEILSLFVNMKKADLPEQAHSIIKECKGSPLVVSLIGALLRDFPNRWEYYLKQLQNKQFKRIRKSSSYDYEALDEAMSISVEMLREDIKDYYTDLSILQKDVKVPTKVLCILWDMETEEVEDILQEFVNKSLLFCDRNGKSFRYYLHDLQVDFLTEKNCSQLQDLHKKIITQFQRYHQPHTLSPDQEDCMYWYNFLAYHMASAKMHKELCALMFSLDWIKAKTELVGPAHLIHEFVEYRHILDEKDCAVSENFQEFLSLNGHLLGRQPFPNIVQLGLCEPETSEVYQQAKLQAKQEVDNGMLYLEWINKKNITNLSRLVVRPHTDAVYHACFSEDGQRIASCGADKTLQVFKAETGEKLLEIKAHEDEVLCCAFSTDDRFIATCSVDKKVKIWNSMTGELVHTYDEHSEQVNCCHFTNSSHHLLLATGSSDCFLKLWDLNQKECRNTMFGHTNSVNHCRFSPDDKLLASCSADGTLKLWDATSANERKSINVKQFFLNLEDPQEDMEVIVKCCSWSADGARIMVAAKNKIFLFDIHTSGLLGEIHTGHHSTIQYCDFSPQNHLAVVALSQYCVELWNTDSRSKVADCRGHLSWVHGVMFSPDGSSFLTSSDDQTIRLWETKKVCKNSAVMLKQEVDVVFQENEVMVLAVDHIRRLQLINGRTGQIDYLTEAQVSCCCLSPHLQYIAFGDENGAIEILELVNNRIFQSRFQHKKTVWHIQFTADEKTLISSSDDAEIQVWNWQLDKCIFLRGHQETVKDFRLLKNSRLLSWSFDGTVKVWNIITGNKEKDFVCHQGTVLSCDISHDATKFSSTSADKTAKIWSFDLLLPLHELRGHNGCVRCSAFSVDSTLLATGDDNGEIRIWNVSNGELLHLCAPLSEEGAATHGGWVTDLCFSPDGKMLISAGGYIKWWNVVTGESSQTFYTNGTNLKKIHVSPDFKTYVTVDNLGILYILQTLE
It is filed as functional.

A short description of assay [10]: Shn3 3'UTR reporter inhibitors, dose response, cell-based, Clone20 osteoblasts, firefly luciferase, cherry-picked (AID 624132).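 Note: firefly luciferase luminescence from reporter carrying the Shn3 3'UTR in osteoblasts.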 It counts as functional.
Assay [11] can be described thus: C. albicans growth with fluconazole, confirmation, fluorescence, retest (AID 2467). It counts as functional, cell-based.
For another assay, the target named is T5, Caspase-6 (Homo sapiens, UniProt P55212).
T5 sequence (P55212 whole entry): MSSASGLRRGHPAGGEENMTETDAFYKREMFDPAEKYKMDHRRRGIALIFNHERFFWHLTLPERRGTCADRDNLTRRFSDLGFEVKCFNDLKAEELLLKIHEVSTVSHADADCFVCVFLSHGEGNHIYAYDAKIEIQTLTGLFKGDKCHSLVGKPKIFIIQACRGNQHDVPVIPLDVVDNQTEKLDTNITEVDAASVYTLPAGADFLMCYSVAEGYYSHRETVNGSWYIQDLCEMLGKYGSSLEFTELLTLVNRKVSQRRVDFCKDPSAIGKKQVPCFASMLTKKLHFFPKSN
The experiment in a line: human caspase-6 inhibitors, dose response, biochemical, VEID-R110 fluorescence, cherry-pick (AID 720632).

For assay [12], the target named is T6, RNA-binding protein pos-1 (Caenorhabditis elegans, UniProt G5EF15).
T6 sequence (G5EF15 whole entry): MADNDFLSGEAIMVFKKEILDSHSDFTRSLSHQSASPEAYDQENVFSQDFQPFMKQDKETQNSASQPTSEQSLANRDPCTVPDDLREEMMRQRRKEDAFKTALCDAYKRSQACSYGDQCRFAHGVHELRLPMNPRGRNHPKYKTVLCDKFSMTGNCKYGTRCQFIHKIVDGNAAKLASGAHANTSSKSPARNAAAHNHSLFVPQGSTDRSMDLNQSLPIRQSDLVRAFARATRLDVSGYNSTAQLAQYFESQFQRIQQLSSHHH
The experiment in a line: inhibitors of POS-1/mex-3 RNA binding, dose response, biochemical, fluorescence polarization (AID 1964).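 Note: purified POS-1 fused to maltose binding protein made in E. coli; potency of compounds blocking POS-1 binding to fluorescent RNA.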

Assay [13] is described as follows: NIH-3T3 fibroblast cytotoxicity, dose response, cytotoxicity control, cell-based, fluorescence, Alamar Blue, secondary assay (AID 2327).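 Note: NIH-3T3 mouse fibroblasts cultured with fluconazole at 8 µg/mL.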 It is filed as functional.
Assay [14] in a line: HepG2 cell cytotoxicity, dose response, cytotoxicity control for Shn3 inhibitor project, CellTiter-Glo, cherry-picked (AID 624134). It is filed as functional, cell-based.
The nature of assay [15]: control 3'UTR Renilla luciferase suppression, dose response, counter-screen for Shn3 inhibitor project, cell-based, Clone20-Shn3RL, cherry-picked (AID 624133). It counts as functional.
The target in assay [16] is T7, Zinc finger protein mex-5 (Caenorhabditis elegans, UniProt Q9XUB2).
T7 sequence (Q9XUB2 whole entry): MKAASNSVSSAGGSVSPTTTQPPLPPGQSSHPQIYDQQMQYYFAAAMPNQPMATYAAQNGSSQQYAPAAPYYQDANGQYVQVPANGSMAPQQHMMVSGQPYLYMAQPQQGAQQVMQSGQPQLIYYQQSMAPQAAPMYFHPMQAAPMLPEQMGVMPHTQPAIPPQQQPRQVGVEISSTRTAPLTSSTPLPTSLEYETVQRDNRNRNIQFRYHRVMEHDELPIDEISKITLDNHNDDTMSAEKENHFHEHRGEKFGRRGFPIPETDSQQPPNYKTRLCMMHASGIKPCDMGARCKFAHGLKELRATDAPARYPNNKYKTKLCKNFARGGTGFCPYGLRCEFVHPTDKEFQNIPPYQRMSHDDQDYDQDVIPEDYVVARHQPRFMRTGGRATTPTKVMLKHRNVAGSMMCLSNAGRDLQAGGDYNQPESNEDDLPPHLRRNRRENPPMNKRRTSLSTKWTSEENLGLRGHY
Nature of the assay: MEX-5/TCR-2 RNA interaction inhibitors, dose response, biochemical, C. elegans, fluorescence polarization (AID 1960).

The target of another assay is Caspase-8 (Homo sapiens, UniProt Q14790). Nature of the assay: caspase-8 inhibition counter-screen, dose response, selectivity assay for caspase-6 inhibitor project, biochemical, Z-IETD-R110 fluorescence, cherry-picked samples (AID 743294). (The purpose of a counterscreen is to sort out artefacts and off-target activity.)
In assay [17] the target is Potassium voltage-gated channel subfamily KQT member 2 (Rattus norvegicus, UniProt O88943). The experiment in a line: retigabine-insensitive KCNQ2 potentiators, concentration-response, dose response, cell-based, retigabine-insensitive compounds (AID 2654). It is filed as functional.

Active and inactive are the calls of the source. A value given as a limit tells only on which side of the number the result lay.

Sequence of Female germline-specific tumor suppressor gld-1 (Q17339 whole entry): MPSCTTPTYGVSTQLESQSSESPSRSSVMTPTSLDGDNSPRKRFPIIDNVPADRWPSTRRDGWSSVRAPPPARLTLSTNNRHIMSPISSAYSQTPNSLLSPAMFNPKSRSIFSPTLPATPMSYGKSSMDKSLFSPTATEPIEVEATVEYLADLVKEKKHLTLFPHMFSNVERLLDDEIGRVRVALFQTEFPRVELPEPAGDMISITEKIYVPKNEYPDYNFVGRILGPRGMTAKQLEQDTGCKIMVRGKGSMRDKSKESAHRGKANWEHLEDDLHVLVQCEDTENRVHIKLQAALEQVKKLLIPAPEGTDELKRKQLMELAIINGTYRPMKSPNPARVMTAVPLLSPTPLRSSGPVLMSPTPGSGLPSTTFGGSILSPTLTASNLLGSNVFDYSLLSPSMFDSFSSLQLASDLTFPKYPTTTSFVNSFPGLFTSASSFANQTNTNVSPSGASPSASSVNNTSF
Sequence of 14-3-3 protein gamma (P61981 whole entry): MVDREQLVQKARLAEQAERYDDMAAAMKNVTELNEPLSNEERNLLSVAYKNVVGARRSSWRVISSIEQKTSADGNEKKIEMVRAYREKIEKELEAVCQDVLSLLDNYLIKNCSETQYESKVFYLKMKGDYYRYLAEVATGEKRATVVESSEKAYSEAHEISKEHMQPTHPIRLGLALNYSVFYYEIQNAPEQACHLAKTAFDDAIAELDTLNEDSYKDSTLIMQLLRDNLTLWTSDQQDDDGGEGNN
Sequence of Potassium voltage-gated channel subfamily KQT member 2 (O88943 whole entry): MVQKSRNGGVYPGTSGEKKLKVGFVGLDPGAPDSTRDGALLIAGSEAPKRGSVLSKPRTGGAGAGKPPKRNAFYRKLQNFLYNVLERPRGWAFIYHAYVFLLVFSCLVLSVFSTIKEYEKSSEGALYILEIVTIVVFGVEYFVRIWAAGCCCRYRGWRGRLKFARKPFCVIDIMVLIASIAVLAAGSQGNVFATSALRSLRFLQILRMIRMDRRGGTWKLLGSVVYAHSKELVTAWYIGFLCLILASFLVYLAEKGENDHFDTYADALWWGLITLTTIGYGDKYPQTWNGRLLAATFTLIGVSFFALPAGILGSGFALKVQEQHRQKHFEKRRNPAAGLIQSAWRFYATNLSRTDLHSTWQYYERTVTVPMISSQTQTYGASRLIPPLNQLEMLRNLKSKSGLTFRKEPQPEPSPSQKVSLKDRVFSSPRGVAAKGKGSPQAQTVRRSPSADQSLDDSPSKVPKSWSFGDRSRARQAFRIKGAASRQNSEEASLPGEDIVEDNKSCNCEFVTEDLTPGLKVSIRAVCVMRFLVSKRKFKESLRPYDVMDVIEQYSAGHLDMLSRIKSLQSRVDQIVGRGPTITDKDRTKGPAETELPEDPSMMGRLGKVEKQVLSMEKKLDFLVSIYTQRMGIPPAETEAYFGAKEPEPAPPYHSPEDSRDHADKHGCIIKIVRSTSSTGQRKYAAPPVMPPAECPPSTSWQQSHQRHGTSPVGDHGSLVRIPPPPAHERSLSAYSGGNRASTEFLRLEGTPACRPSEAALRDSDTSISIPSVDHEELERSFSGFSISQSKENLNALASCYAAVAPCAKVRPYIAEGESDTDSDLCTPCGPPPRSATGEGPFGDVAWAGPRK
Sequence of Cytochrome P450 2D6 (P10635 whole entry, the tested form may be a part): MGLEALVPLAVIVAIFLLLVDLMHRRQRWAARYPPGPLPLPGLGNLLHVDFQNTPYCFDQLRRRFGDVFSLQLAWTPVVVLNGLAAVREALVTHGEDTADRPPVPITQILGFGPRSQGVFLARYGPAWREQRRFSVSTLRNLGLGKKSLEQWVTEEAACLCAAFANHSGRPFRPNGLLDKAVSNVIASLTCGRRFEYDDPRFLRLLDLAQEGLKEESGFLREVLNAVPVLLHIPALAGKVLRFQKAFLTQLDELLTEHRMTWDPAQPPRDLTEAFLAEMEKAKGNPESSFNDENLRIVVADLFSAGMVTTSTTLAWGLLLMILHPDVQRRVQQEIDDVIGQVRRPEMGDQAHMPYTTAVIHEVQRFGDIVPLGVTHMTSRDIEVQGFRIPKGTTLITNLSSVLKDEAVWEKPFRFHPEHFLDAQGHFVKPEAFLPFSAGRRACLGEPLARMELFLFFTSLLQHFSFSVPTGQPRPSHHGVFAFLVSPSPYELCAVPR
Sequence of G-protein coupled receptor 35 (Q9HC97 whole entry): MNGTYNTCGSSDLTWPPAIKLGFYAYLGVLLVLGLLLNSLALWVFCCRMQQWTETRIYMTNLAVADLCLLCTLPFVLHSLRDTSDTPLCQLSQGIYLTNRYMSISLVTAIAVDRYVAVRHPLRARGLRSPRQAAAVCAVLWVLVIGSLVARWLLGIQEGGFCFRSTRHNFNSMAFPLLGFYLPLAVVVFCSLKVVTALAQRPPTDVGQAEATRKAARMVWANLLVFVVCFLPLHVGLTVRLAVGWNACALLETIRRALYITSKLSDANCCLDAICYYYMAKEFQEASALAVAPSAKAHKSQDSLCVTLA
Sequence of Protein Rev (P04618 whole entry): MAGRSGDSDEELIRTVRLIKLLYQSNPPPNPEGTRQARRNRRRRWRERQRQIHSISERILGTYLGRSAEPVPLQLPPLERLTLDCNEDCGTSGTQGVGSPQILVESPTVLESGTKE
Sequence of Genome polyprotein (P29990 2492-3391 limits assumed): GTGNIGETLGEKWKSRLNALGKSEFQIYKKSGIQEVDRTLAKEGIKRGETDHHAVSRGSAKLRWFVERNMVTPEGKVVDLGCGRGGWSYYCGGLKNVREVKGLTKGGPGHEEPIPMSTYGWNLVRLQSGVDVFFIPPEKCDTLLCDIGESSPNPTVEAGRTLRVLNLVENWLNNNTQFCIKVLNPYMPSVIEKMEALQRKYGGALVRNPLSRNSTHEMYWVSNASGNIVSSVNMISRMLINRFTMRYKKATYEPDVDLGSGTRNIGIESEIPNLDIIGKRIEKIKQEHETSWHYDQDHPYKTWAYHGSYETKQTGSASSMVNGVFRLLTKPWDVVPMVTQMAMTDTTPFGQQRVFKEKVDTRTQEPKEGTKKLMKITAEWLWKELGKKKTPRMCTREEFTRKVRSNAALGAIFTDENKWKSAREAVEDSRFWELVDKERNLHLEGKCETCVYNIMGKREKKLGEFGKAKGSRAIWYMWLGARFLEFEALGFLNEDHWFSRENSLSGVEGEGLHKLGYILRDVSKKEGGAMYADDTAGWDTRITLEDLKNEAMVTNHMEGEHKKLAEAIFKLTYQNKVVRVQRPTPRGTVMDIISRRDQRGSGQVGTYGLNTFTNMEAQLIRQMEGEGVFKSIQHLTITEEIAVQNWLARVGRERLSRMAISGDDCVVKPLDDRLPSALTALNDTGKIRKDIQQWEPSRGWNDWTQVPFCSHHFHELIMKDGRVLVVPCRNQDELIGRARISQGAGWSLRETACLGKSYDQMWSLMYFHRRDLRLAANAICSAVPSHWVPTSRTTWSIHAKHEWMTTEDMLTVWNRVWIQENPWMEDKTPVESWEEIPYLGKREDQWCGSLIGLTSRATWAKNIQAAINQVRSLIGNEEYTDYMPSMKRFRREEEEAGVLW
Sequence of Caspase-8 (Q14790 217-374 limits assumed): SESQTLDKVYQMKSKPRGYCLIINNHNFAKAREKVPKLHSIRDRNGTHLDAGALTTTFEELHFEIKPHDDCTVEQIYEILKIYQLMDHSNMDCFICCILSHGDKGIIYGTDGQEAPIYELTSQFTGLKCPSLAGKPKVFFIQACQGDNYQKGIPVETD
Sequence of Caspase-8 (Q14790 385-479 limits assumed): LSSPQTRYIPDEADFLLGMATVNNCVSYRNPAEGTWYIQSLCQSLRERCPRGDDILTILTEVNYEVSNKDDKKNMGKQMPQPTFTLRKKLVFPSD

For orientation: IC50 means the concentration at which inhibition is half-maximal. Usually AC50 stands for the concentration giving half of the maximal activity seen. Take `CCn1c(CSc2nnc3ccccn23)nc2cc(C(=O)O)ccc21`: the IC50 in assay [1] is 11.2 µM (inactive); at 14-3-3 protein gamma, 0.853 µM (active); on Genome polyprotein it was 23.2 µM (active); at Protein Rev, > 75.4 µM (not active). Also, in [2], the AC50 was 50.1 µM (active).
For orientation: EC50 means the concentration needed to bring the measured effect to its halfway point. Consider `COc1ccc(Nc2ncc(C(=O)N3CCN(c4ccc(F)cc4)CC3)c3ccccc23)cc1`, for which the EC50 at Caspase-3 [3] and on Caspase-7 [4] was > 85.2 µM (inactive) in each case. Moreover, the half-maximal activity concentration (AC50) is 31.6 µM (inconclusive) at Cytochrome P450 2D6 and 49 µM (active) in [5].
For `CCOc1ccc2nc3cc(NCc4ccc(OC)cc4)ccc3c(N)c2c1`, the IC50 in assay [6] is 15.3 µM (inactive); in assay [9], 23.5 µM (active). Further, the AC50 was 9.75 µM (active) on Caspase-7 [7]; 21.2 µM (active) on Caspase-3 [8]; 6.69 µM (active) in assay [10]; 4.3 µM (active) on Caspase-6; 16.5 µM (active) in [14]; 23 µM (active) in assay [15]. Further, the AC50 at Caspase-8 is 25.9 µM (active). The EC50 is 2.76 µM (active) in assay [11], 4.47 µM (active) in assay [12], > 150 µM (inconclusive) in [13] and 3.94 µM (active) in assay [16].
For the compound `Cc1ccc(NC(=O)Nc2cccnc2)cc1`, in assay [17], the EC50 is 128 µM (active).
